“Also recorded” adds a separate entry of the source. Read-outs that look alike come from different tables or passages of the source.
Tests used:
[1] = Ptosis, in vivo surrogate measure of pharmacological effect
[2] = target: T1, human VMAT1 transporter (Homo sapiens, UniProt P54219); assay: Uptake in cells expressing VMAT1; type: cell-based; conditions: TBZ, VBZ and metabolites at concentrations up to 10 μM
T1 construct: expressed in transfected cells
T1 sequence (P54219 1-525): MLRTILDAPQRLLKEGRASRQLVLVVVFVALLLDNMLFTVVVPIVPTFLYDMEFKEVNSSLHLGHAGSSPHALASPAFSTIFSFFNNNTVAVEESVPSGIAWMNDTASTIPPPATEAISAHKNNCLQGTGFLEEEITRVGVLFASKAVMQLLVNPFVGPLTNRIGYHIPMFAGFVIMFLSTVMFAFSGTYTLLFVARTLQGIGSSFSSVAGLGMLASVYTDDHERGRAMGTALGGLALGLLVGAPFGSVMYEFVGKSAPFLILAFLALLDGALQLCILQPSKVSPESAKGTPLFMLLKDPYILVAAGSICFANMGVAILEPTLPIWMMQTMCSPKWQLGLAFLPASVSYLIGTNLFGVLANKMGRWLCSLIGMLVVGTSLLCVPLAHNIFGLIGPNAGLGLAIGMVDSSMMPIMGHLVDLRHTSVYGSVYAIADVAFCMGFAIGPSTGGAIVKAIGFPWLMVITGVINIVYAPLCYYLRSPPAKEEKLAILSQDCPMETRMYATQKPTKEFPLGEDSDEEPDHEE

[3] = target: Serotonin 5-HT7 (Homo sapiens, UniProt P34969); assay: Cerep screen, Serotonin 5-HT7; conditions: 1 or 10 μM final concentration; n=2
Sequence of Serotonin 5-HT7 (P34969 whole entry): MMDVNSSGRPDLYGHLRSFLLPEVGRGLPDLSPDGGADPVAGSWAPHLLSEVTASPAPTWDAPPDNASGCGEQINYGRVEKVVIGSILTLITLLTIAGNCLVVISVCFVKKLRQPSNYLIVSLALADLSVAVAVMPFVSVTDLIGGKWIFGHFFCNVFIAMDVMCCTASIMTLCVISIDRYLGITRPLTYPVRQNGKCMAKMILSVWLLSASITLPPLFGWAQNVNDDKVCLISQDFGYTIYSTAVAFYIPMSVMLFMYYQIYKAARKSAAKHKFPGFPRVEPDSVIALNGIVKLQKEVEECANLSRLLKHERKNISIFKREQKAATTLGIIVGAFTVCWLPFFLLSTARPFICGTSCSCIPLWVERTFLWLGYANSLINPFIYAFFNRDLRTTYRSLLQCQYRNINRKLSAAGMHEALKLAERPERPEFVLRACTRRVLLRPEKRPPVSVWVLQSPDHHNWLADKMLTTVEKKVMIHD

[4] = target: T2, Serotonin 5-HT1A (Homo sapiens, UniProt P08908); assay: Cerep screen, Serotonin 5-HT1A; conditions: 1 or 10 μM final concentration; n=2
T2 sequence (P08908 1-422): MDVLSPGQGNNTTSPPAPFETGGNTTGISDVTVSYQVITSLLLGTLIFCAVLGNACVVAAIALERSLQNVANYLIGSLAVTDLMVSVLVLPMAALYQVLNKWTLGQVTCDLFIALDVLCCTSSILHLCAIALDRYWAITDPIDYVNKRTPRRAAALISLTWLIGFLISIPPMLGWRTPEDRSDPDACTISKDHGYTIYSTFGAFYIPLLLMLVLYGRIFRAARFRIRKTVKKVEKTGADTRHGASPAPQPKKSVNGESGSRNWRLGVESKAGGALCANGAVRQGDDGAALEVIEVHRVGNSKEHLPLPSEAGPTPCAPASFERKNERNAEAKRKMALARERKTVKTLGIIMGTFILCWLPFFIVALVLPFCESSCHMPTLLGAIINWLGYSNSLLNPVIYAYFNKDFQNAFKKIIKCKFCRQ

[5] = Phase 1 open-label one-sequence crossover drug-interaction study: plasma pharmacokinetics of NBI-98854 and metabolites with and without rifampin; type: in vivo, human; conditions: for half-life: read-out: Mean t1/2 (converted); for AUC(0-inf) / Cmax / MRT / AUC(0-t) / Tlag / t1/2: Mean (SD); for AUC(0-t): plasma
Protocol: (§1) Subjects received a single dose of 80 mg valbenazine tosylate on Days 1 and 11 between 0800 and 1000 hours. In addition, subjects received 600 mg rifampin (300 mg×2 capsules) once daily on Days 5 (after collection of the 96-hour PK sample) through 14 between 0830 and 1030 hours. Subjects were required to fast overnight before receiving the study drugs (valbenazine tosylate and rifampin). Subjects were discharged from the study center on Day 15 (final study day or upon early termination) after all safety evaluations and study assessments had been completed.
Safety was assessed throughout the study.
NBI-98854 40 mg capsules were administered orally. The dose of NBI-98854 was based on ditosylate salt (dose expressed as free base). Subjects received a single dose of NBI-98854 80 mg (as two 40 mg capsules) twice during the study, on Days 1 and 11.
Rifampin 300 mg capsules were administered orally. Subjects received a single dose of rifampin 600 mg (as two 300 mg capsules) on Days 5 (after collection of the 96 hour NBI-98854 PK sample) through 14 between 0830 and 1030 hours.
The following plasma PK parameters were calculated only for NBI-98854: • Apparent systemic clearance after oral administration (CL/F) • Apparent volume of distribution during the terminal phase after oral administration (Vz/F)
The last significant figure was rounded up if the digit to the right of it was >5, and was rounded down if the digit to the right of it was […].
The last significant figure was rounded up if the digit to the right of it was ≥5, and was rounded down if the digit to the right of it was ≤4.
(§2) An analysis of variance (ANOVA) model was used to compare AUC0-∞ and Cmax for NBI-98854 administered with rifampin (“test”) versus AUC0-∞ and Cmax for NBI-98854 alone (“reference”). The PK parameters for metabolites of NBI-98854 and rifampin were also evaluated. Safety data were summarized using descriptive statistics.

[6] = target: T3, VMAT2 (Homo sapiens, UniProt Q05940); assay: Inhibition of [3H]-DHTBZ binding to human platelets
T3 construct: from tissue; host or cells: human platelets (homogenates)
T3 sequence (Q05940 whole entry): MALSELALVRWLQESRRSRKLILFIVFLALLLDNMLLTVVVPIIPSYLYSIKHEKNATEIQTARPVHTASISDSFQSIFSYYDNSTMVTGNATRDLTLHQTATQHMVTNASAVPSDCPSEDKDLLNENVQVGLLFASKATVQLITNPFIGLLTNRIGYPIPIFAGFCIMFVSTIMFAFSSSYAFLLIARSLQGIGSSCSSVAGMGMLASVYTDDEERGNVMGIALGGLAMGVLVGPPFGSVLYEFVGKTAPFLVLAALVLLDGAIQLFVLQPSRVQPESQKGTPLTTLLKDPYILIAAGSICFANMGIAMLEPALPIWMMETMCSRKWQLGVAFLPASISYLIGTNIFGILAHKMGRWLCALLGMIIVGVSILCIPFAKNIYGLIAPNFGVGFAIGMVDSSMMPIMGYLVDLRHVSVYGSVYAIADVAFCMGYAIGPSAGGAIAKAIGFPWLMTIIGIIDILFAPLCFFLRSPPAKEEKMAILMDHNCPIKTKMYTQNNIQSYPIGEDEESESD

[7] = tested on: more than 80 targets (GPCRs, cell-surface monoamine transporters, ion channels including HERG); assay: Cerep multi-target activity screen; conditions: receptors, monoamine transporters, and ion channels
[8] = Phase 1 drug-interaction study: safety, treatment-emergent adverse events; type: in vivo, human; conditions: Safety Analysis Set, healthy subjects, by treatment period
Protocol: as §1, §2

[9] = both sexes, human, oral, plasma metabolite NBI-136110, NBI-98854 80 mg + rifampin 600 mg, N = 11
[10] = both sexes, human, oral, plasma metabolite NBI-136110, NBI-98854 80 mg alone, N = 11
[11] = plasma metabolite NBI-136110, NBI-98854 80 mg + rifampin 600 mg, N = 11
[12] = plasma metabolite NBI-136110, NBI-98854 80 mg alone, N = 11

For COc1cc2c(cc1OC)C1CC(=O)C(CC(C)C)CN1CC2 (stereo not drawn) [TBZ, reference compound], which induction of ptosis [1] is on record?
The induction of ptosis was “induced ptosis in an equivalent manner”.

What about the “inhibition of uptake through VMAT1” value [2] of the same compound?
The value was “no significant inhibitory activity; also recorded: no significant effect”.

For COc1cc2c(cc1OC)[C@H]1C[C@H](O)[C@H](CC(C)C)CN1CC2 [S,R,R-DHTBZ, reference compound], which “percent of control specific binding, Serotonin 5-HT7” value [3] is on record?
Its value is 80%.

And the “percent of control specific binding, Serotonin 5-HT1A” value [4]?
The value was 69%.

Which half-life ([5]; both sexes, human, oral, 80 mg, plasma analyte, NBI-98854 alone) does the source give for COc1cc2c(cc1OC)[C@H]1C[C@@H](OC(=O)[C@@H](N)C(C)(C)O)[C@H](CC(C)C)CN1CC2 [NBI-136110] here?
The half-life was 27 h.

What about the Tmax ([5]; both sexes, human, oral, 80 mg, plasma analyte, NBI-98854 alone, read-out: Median tmax) of the same compound?
Its Tmax is 3 h.

What about the half-life ([5]; both sexes, human, oral, plasma analyte, NBI-98854 administered with rifampin) of the same compound?
The half-life was 12 h.

And the Tmax ([5]; both sexes, human, oral, plasma analyte, NBI-98854 in combination with rifampin vs NBI-98854 alone, read-out: Median tmax shorter)?
The Tmax was 1.5 h.

What about the AUC(0-inf) [5, 9] of the same compound?
Its AUC(0-inf) is 663 ng·h/mL.

And the Cmax [5, 9]?
The Cmax was 81.5 ng/mL.

What about the MRT [5, 9] of the same compound?
The MRT was 12 h.

And the AUC(0-inf) [5, 10]?
The AUC(0-inf) was 2080 ng·h/mL.

What about the Cmax [5, 10] of the same compound?
The Cmax was 59.8 ng/mL.

What about the MRT [5, 10] of the same compound?
The MRT was 39 h.

And the AUC(0-t) ([5]; both sexes, human, oral, 80 mg, plasma metabolite NBI-136110, NBI-98854 80 mg alone, N = 11, read-out: AUC0-24)?
The AUC(0-t) was 963 ng·h/mL.

What about the AUC(0-t) ([5]; both sexes, human, oral, 80 mg, plasma metabolite NBI-136110, NBI-98854 80 mg alone, N = 11, read-out: AUC0-tlast) of the same compound?
Its AUC(0-t) is 1890 ng·h/mL.

And the AUC(0-t) ([5]; both sexes, human, oral, plasma metabolite NBI-136110, NBI-98854 80 mg + rifampin 600 mg, N = 11, read-out: AUC0-24)?
Its AUC(0-t) is 554 ng·h/mL.

And the AUC(0-t) ([5]; both sexes, human, oral, plasma metabolite NBI-136110, NBI-98854 80 mg + rifampin 600 mg, N = 11, read-out: AUC0-tlast)?
Its AUC(0-t) is 658 ng·h/mL.

What about the “Mean t1/2 shorter” value ([5]; plasma analyte, NBI-98854 in combination with rifampin vs NBI-98854 alone) of the same compound?
Its value is “approximately 40%”.

And the “decrease in AUC0-∞” value ([5]; plasma analyte, NBI-98854 plus rifampin compared with NBI-98854 alone)?
Its value is “approximately 70%”.

And the Tlag [5, 11]?
Its Tlag is 0.16 (0.13) hr.

What about the t1/2 [5, 11] of the same compound?
Its t1/2 is 12 (3.0) hr.

What about the Tmax ([5]; plasma metabolite NBI-136110, NBI-98854 80 mg + rifampin 600 mg, N = 11, Median (min, max)) of the same compound?
Its Tmax is 1.5 (0.75, 2.1) hr.

And the Tlag [5, 12]?
Its Tlag is 0.23 (0.14) hr.

What about the t1/2 [5, 12] of the same compound?
Its t1/2 is 27 (6.7) hr.

What about the Tmax ([5]; plasma metabolite NBI-136110, NBI-98854 80 mg alone, N = 11, Median (min, max)) of the same compound?
The Tmax was 3.0 (2.0, 8.0) hr.

And the “Affinity Relative to R,R,R-DHTBZ” value [6]?
Its value is 67.

What about the “pKi mean (SEM)” value ([6]; n=4) of the same compound?
Its value is 6.65 (0.04).

And the “affinity for more than 80 binding sites” value [7]?
Its value is “little to no affinity”.

And the “inhibition of uptake through VMAT1” value [2]?
Its value is “no significant inhibitory activity; also recorded: no significant effect”.

Which “Subjects who experienced a TEAE: Overall” value [8] does the source give for CO[C@H]1/C=C/O[C@@]2(C)Oc3c(C)c(O)c4c(O)c(c(/C=N/N5CCN(C)CC5)c(O)c4c3C2=O)NC(=O)/C(C)=C\C=C\[C@H](C)[C@H](O)[C@@H](C)[C@@H](O)[C@@H](C)[C@H](OC(C)=O)[C@@H]1C [Rifampin, reference compound] here?
Its value is 12 (100) n (%).

And the “TEAE: Abdominal pain” value [8]?
Its value is 0 n (%).

And the “TEAE: Abdominal pain upper” value [8]?
Its value is 1 (8.3) n (%).

And the “TEAE: Arthropod bite” value [8]?
Its value is 0 n (%).

What about the “TEAE: Chromaturia” value [8] of the same compound?
The value was 12 (100) n (%).

What about the “TEAE: Headache” value [8] of the same compound?
The value was 0 n (%).

And the “TEAE: Hypoaesthesia” value [8]?
The value was 0 n (%).

And the “TEAE: Non-cardiac chest pain” value [8]?
Its value is 1 (8.3) n (%).

And the “TEAE: Paraesthesia” value [8]?
Its value is 1 (8.3) n (%).

And the “TEAE: Vessel puncture site haemorrhage” value [8]?
The value was 0 n (%).

And the “TEAE: Chromaturia” value ([8]; listed as rifampin)?
Its value is 12 n (%).

Which “inhibition of uptake through VMAT1” value [2] does the source give for COC(=O)[C@H]1[C@H]2C[C@@H]3c4[nH]c5cc(OC)ccc5c4CCN3C[C@H]2C[C@@H](OC(=O)c2cc(OC)c(OC)c(OC)c2)[C@@H]1OC [reserpine, reference compound] here?
Its value is “substantially inhibited uptake”.

From US10912771B1, “Methods for the administration of certain VMAT2 inhibitors” (Neurocrine Biosciences, Inc., priority 2017, dated 2021)
